# From ChEMBL document CHEMBL1201862, “PubChem BioAssay data set” (2004)
# Calls of active or inactive are those of the source.
# How the values were obtained:
# [1] = target: Peroxisome proliferator-activated receptor gamma/Nuclear receptor coactivator 2 (Homo sapiens, UniProt P37231); format: functional;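 further: agonist potency for raising coactivator recruitment to the receptor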
# [2] = target: Peroxisome proliferator-activated receptor gamma/Nuclear receptor coactivator 1 (Homo sapiens, UniProt P37231); format: functional;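 further: agonist potency as compounds enhance coactivator SRC-1 recruitment to PPARgamma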
# [3] = target: Peroxisome proliferator-activated receptor gamma/Nuclear receptor coactivator 3 (Homo sapiens, UniProt P37231); format: functional;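 further: agonist potency for raising coactivator recruitment to the receptor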
# Troponin, cardiac muscle = Troponin, cardiac muscle (Homo sapiens, UniProt P19429+P45379+P63316); assay: Fluorescence-based biochemical high throughput dose response assay for activators of the calcium sensitivity of cardiac Regulated Thin Filaments (RTF). [Related pubchem assays (depositor defined):AID493008, AID493018, AID504382, AID504383]; format: protein-complex assay
# cells [4] = format: functional, cell-based
# cells [5] = format: functional, cell-based; remark: listed apart in the source
# [6] = target: T1, Type-1 angiotensin II receptor (Homo sapiens, UniProt P30556); assay: agonist activity at AGTR1 – cell-based, uHTS hits, selectivity assay for APJ receptor agonist project, dose response (AID 488865); format: functional;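 further: beta-arrestin recruitment to AT1 measured by enzyme fragment complementation luminescence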
# T1 sequence (P30556 whole entry): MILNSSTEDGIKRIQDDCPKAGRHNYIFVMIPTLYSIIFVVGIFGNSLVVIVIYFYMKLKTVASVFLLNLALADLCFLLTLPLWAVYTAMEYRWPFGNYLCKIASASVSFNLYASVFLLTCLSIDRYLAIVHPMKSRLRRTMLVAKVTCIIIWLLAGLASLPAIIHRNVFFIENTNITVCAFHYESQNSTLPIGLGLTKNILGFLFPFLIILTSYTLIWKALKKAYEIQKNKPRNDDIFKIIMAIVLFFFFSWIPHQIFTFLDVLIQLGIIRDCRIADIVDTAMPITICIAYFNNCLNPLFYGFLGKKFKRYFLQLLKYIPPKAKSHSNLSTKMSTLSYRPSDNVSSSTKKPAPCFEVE
# H9c2 = assay: cells; format: functional, cell-based; conditions: Rattus norvegicus, H9c2, Myocardium;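 further: confirmatory concentration-response retest of ultra-high-throughput screening hits for modulation of myocardial damage; cell death induced by hydrogen peroxide oxidative stress; compound pretreatment for 60 min then peroxide exposure for 2 h; potency is for protecting the cells against peroxide damage rather than for killing them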
# [7] = A549 cell cytotoxicity, dose response, cytotoxicity control, plate reader, cherry-pick, antagonist series (AID 743412); format: functional, cell-based
# [8] = toxicity toward HepG2 liver cells – cell-based, plate reader, cherry-pick, antagonist series, cytotoxicity control, dose response (AID 743416); format: functional
# [9] = blockers of bursicon-stimulated LGR2 cAMP reporter – cell-based, HEK293, CRE-luciferase reporter, cherry pick, set 2, dose response (AID 743343); format: functional;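 further: transfected cells were stimulated with diluted bursicon conditioned medium after compound addition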
# [10] = blockade of melanocortin 4 receptor signaling – cell-based, plate reader, cherry pick, counter-screen for LGR2 antagonist project, dose response (AID 743444); format: functional;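 further: transfected HEK 293 cells stimulated with alpha-MSH peptide; potency of inhibitors of the alpha-MSH evoked signal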
# SUMO-activating enzyme [11] = target: T2, SUMO-activating enzyme (Homo sapiens, UniProt Q9UBT2); assay: blockers of UBC9-mediated SUMO conjugation – biochemical, AlphaScreen, SUMOylation inhibitor project, confirmation (AID 2018); format: functional
# SUMO-activating enzyme [12] = target: T2, SUMO-activating enzyme; assay: blockers of SAE1/SAE2–UBC9 SUMO transfer – biochemical, HTRF, uHTS, primary screen (AID 2006); format: protein-complex assay
# [13] = target: Eukaryotic translation initiation factor 4E (Mus musculus, UniProt P63073); assay: blockers of eIF4G binding by eIF4E – biochemical, TR-FRET, dose response (AID 855); format: functional;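 further: potency for disrupting eIF4E binding to eIF4GI seen as loss of FRET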
# [14] = target: T3, Long-chain-fatty-acid--AMP ligase FadD28 (Mycobacterium tuberculosis, UniProt P9WQ59); assay: Fluorescence polarization aasay to screen for inhibitors that compete for the binding of FadD28 to a bisubstrate Measured in Biochemical System Using Plate Reader - 2147-01_Inhibitor_Dose_CherryPick_Activity.; format: functional, Mycobacterium tuberculosis H37Rv
# T3 sequence (P9WQ59 whole entry): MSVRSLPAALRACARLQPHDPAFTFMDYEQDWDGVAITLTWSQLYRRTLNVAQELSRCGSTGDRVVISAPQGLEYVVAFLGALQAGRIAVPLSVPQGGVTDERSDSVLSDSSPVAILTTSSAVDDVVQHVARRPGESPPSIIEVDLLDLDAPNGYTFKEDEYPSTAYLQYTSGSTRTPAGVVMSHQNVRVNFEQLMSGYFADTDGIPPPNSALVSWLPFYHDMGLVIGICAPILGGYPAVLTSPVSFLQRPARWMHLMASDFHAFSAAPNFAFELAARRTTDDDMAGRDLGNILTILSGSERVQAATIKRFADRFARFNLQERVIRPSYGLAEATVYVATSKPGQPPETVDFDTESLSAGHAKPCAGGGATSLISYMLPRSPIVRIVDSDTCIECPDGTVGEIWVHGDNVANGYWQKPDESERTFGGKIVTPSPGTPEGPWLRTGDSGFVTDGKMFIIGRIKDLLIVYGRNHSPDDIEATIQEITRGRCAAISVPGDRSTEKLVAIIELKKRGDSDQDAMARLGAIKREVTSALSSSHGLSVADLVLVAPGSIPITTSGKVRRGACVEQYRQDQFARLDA
# [15] = target: T4, E3 ubiquitin-protein ligase XIAP (Homo sapiens, UniProt P98170); assay: Counter Screen using XIAP-Bir3 for Chemical Antagonists of Bir1/2 domains of IAP-family anti-apoptotic proteins. [Related pubchem assays (depositor defined):AID1018, AID1449, AID1514, AID1638, AID1749, AID1750, AID488957, AID488963]
# [16] = target: T4, E3 ubiquitin-protein ligase XIAP; assay: small molecules displacing peptide from XIAP – biochemical, IAP family, fluorescence polarization (AID 1018); format: functional
# [17] = target: G-protein coupled receptor 55 (Homo sapiens, UniProt Q9Y2T6); assay: selective activators of receptor GPR55 – imaging, U2OS cells, beta-arrestin-GFP redistribution, primary screen (AID 1961); format: functional
# G-protein coupled receptor 55, sequence (Q9Y2T6 whole entry): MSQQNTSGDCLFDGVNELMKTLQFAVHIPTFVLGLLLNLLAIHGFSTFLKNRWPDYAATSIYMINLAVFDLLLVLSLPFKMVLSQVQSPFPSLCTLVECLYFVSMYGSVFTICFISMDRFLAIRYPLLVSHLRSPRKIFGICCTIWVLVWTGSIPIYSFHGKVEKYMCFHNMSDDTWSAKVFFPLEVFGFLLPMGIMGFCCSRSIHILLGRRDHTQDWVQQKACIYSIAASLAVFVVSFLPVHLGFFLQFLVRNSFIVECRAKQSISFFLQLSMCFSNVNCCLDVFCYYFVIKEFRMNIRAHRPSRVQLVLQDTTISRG
# T4 sequence (P98170 whole entry): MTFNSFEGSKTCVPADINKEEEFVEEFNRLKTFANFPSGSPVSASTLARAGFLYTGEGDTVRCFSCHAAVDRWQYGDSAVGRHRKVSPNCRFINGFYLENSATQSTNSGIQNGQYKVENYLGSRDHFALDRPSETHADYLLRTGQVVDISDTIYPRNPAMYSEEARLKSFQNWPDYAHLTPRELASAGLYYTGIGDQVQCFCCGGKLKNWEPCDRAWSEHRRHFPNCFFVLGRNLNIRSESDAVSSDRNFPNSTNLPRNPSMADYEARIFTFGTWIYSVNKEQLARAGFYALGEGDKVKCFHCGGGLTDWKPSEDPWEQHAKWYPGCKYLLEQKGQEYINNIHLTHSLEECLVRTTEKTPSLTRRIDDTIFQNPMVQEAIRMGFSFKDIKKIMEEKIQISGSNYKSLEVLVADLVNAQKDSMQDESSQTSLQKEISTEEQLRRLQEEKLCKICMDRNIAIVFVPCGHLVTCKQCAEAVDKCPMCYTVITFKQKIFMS
# T2 sequence (Q9UBE0 whole entry): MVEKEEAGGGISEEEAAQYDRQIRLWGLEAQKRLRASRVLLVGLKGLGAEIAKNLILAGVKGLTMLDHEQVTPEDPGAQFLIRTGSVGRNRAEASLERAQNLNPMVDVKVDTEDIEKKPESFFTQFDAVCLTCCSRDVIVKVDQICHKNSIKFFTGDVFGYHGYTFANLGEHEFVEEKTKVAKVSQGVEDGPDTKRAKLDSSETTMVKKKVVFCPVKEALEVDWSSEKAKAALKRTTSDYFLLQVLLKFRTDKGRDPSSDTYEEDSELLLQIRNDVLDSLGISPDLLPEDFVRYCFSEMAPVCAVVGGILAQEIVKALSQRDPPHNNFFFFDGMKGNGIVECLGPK
# T2 sequence (Q9UBT2 whole entry): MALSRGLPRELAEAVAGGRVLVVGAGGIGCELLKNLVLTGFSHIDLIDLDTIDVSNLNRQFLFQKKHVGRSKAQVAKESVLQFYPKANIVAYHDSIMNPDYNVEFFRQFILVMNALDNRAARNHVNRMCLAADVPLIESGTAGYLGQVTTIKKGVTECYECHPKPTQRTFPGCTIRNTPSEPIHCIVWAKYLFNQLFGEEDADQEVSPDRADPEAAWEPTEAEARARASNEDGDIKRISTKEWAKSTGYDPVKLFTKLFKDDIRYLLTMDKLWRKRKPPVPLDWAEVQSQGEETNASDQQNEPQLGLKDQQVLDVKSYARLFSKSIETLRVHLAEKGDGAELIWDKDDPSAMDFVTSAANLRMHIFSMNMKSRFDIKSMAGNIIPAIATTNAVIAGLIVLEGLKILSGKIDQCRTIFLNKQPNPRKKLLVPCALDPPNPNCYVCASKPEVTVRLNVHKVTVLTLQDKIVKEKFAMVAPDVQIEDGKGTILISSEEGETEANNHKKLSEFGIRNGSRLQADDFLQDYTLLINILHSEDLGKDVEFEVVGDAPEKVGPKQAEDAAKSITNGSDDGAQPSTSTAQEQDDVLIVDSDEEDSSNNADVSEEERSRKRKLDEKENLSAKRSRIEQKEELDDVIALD
# Eukaryotic translation initiation factor 4E, sequence (P63073 whole entry): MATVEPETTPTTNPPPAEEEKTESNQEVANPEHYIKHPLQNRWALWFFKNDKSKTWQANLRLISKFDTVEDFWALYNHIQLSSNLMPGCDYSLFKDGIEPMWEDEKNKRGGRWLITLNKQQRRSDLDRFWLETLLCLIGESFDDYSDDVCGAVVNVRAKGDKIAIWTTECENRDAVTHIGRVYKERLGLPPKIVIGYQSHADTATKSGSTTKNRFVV
# Peroxisome proliferator-activated receptor gamma/Nuclear receptor coactivator 3, sequence (P37231 whole entry): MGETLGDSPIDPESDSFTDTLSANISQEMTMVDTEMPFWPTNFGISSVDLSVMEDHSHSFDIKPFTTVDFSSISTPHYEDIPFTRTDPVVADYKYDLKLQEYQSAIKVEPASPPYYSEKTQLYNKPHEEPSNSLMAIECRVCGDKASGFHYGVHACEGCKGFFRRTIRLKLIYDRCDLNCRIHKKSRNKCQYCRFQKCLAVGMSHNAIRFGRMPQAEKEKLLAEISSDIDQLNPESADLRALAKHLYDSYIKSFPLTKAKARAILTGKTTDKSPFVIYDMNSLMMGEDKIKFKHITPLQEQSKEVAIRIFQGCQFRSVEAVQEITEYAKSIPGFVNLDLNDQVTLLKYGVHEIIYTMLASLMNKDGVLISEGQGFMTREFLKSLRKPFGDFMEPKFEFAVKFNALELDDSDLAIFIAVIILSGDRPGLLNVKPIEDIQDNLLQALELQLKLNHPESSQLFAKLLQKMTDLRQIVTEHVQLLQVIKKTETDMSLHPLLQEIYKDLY
# Peroxisome proliferator-activated receptor gamma/Nuclear receptor coactivator 3, sequence (Q9Y6Q9 whole entry, further chain): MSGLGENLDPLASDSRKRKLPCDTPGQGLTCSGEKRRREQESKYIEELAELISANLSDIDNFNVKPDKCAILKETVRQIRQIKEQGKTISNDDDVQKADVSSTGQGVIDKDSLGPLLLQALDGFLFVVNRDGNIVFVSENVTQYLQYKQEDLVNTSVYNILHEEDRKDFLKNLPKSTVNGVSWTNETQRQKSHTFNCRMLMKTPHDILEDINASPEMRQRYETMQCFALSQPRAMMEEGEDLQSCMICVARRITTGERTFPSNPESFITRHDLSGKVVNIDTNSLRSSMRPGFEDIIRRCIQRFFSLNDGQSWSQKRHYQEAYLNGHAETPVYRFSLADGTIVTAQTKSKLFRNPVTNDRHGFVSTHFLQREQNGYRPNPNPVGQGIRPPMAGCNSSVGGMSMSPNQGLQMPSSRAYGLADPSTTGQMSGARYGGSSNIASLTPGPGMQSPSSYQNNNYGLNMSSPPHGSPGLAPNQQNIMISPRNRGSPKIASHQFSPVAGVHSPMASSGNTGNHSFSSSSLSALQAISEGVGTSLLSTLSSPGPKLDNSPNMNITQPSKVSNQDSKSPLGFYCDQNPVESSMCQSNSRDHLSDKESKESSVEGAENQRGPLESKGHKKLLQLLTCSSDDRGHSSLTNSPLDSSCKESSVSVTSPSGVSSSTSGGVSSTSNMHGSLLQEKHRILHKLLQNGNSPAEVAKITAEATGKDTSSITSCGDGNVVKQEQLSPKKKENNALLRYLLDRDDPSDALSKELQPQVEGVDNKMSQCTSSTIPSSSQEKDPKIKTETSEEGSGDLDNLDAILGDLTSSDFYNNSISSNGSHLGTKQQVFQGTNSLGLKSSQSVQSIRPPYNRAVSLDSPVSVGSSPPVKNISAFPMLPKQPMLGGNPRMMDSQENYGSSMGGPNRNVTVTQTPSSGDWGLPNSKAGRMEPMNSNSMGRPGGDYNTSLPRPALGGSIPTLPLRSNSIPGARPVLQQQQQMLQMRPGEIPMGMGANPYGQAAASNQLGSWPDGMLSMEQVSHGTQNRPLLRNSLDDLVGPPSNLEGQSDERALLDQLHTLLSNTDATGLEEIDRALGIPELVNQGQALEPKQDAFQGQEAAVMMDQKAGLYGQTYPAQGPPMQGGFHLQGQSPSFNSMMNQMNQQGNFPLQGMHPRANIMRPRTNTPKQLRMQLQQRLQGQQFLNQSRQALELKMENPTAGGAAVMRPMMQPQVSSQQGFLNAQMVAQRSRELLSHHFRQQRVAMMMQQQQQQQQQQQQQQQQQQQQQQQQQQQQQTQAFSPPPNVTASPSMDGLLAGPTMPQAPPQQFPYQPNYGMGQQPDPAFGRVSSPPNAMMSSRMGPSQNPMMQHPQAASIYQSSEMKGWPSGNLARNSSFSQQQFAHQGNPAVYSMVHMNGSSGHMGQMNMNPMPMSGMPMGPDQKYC
smiles,measurement,setting,value
Cn1nc(-c2ccccc2)c(C(=O)Nc2ccc(C(F)(F)F)cc2)c1Cl,EC50,[1],> 79.4 µM (not active)
same,EC50,[2],> 79.4 µM (not active)
same,EC50,[3],> 79.4 µM (not active)
same,EC50,"Troponin, cardiac muscle",> 71.5 µM (inactive)
CC(C)C(=O)N1CCN(c2ccc(NC(=O)COc3ccccc3[N+](=O)[O-])cc2)CC1,EC50,cells [4],> 350 µM (not active)
same,EC50,cells [5],> 350 µM (not active)
same,EC50,[6],> 100 µM (inactive)
same,IC50,H9c2,> 79 µM (inactive)
same,AC50,[7],> 52 µM (inactive)
same,AC50,[8],41.7 µM (active)
same,AC50,[9],31.2 µM (active)
same,AC50,[10],20 µM (active)
Cc1ccc(NC(=O)CN2C(=O)S/C(=C\c3ccc(-c4cccc(C(=O)O)c4C)o3)C2=O)cc1C,IC50,SUMO-activating enzyme [11],6.11 µM (active)
same,IC50,SUMO-activating enzyme [12],6.48 µM (active)
same,IC50,[13],27.9 µM (active)
same,AC50,[14],52.8 µM (active)
Cc1ccc(NS(=O)(=O)c2cc(C(=O)N(C)C)ccc2C)cc1C,IC50,[15],> 100 µM (inactive)
same,IC50,[16],> 100 µM (not active)
CCC(C)NC(=O)C(=O)NC1CCCC1 (stereo unspecified),IC50,[15],> 100 µM (inactive)
same,IC50,[16],> 100 µM (not active)
Cc1cc(C)c(/C=N/NC(=O)c2nnn(-c3nonc3N)c2CN2CCC(C)CC2)c(C)c1,EC50,[17],8.18 µM (active)
